Measurements: patent EP0305086A2, “Antibiotic A80577 and process for its production” (ELI LILLY AND COMPANY, priority 1987, dated 1989)

System: Actinomadura verrucosospora A80577
Test: Resistance of the producing culture to antibiotic sensitivity discs on seeded ISP No. 2 agar plates
Format: cell-based
Settings: culture A80577 on ISP No. 2 agar
Description: Resistance to antibiotics was measured by padding antibiotic sensitivity discs onto the surface of seeded ISP No. 2 agar plates.
A80577 was resistant to: bacitracin 10 units, cephalothin 30 µg, lincomycin 2 µg, oleandomycin 15 µg, penicillin G 10 units, rifampin 5 µg, and tetracycline 30 µg. It was sensitive to: gentamicin 10 µg, neomycin 30 µg, streptomycin 10 µg, tobramycin 10 µg and vancomycin 30 µg.

Compound: CC(=O)OCC1=C(C(=O)O)N2C(=O)[C@@H](NC(=O)Cc3cccs3)[C@H]2SC1 [cephalothin]
- Resistance to antibiotics (sensitivity disc) (disc 30 µg): resistant

Compound: CCC[C@@H]1C[C@@H](C(=O)N[C@@H]([C@H]2O[C@H](SC)[C@H](O)[C@@H](O)[C@H]2O)[C@@H](C)O)N(C)C1 [lincomycin]
- Resistance to antibiotics (sensitivity disc) (disc 2 µg): resistant

Compound: CO[C@H]1C[C@H](O[C@H]2[C@H](C)[C@@H](O[C@@H]3O[C@H](C)C[C@H](N(C)C)[C@H]3O)[C@@H](C)C[C@@]3(CO3)C(=O)[C@H](C)[C@@H](O)[C@@H](C)[C@@H](C)OC(=O)[C@@H]2C)O[C@@H](C)[C@@H]1O [oleandomycin]
- Resistance to antibiotics (sensitivity disc) (disc 15 µg): resistant

Compound: CC1(C)S[C@@H]2[C@H](NC(=O)Cc3ccccc3)C(=O)N2[C@H]1C(=O)O [penicillin G]
- Resistance to antibiotics (sensitivity disc) (disc 10 units): resistant

Compound: CO[C@H]1/C=C/O[C@@]2(C)Oc3c(C)c(O)c4c(O)c(c(/C=N/N5CCN(C)CC5)c(O)c4c3C2=O)NC(=O)/C(C)=C\C=C\[C@H](C)[C@H](O)[C@@H](C)[C@@H](O)[C@@H](C)[C@H](OC(C)=O)[C@@H]1C [rifampin]
- Resistance to antibiotics (sensitivity disc) (disc 5 µg): resistant

Compound: [H]/N=C(/N)N[C@H]1[C@H](O)[C@@H](O)[C@H](O[C@@H]2O[C@@H](C)[C@](O)(C=O)[C@H]2O[C@@H]2O[C@@H](CO)[C@H](O)[C@@H](O)[C@@H]2NC)[C@@H](N/C(N)=N\[H])[C@@H]1O [streptomycin]
- Resistance to antibiotics (sensitivity disc) (disc 10 µg): sensitive

Compound: NC[C@H]1O[C@H](O[C@H]2[C@H](O)[C@@H](O[C@H]3O[C@H](CO)[C@@H](O)[C@H](N)[C@H]3O)[C@H](N)C[C@@H]2N)[C@H](N)C[C@@H]1O [tobramycin]
- Resistance to antibiotics (sensitivity disc) (disc 10 µg): sensitive

Compound: CN[C@H](CC(C)C)C(=O)N[C@H]1C(=O)N[C@@H](CC(N)=O)C(=O)N[C@H]2C(=O)N[C@H]3C(=O)N[C@H](C(=O)N[C@H](C(=O)O)c4cc(O)cc(O)c4-c4cc3ccc4O)[C@H](O)c3ccc(c(Cl)c3)Oc3cc2cc(c3O[C@@H]2O[C@H](CO)[C@@H](O)[C@H](O)[C@H]2O[C@H]2C[C@](C)(N)[C@H](O)[C@H](C)O2)Oc2ccc(cc2Cl)[C@H]1O [vancomycin]
- Resistance to antibiotics (sensitivity disc) (disc 30 µg): sensitive

Compound: bacitracin
- Resistance to antibiotics (sensitivity disc) (disc 10 units): resistant

Compound: gentamicin
- Resistance to antibiotics (sensitivity disc) (disc 10 µg): sensitive

Compound: neomycin
- Resistance to antibiotics (sensitivity disc) (disc 30 µg): sensitive
